Assay results published in patent US20050209157A1, “Short bioactive peptides and methods for their use” (priority 2001, published 2005).
Values after ≈ are worked out from the molar mass of the structure shown. No end group written: not given here.

Assays:
[1] = test system: Pseudomonas aeruginosa ATCC 27853; assay: Antimicrobial assay I, modified protocol (tryptic soy broth), MBC; details: minimum bactericidal concentration, Table 4
Experimental: The preparation of all media, stock solutions, and dilutions took place in a laminar flow hood to prevent contamination. Bacterial cells were freshly grown on antibiotic medium 2 agar slants (pH 7.0 at 25° C.). Bacteria were suspended and diluted in antibiotic medium 3 to about 10^4 cfu/ml and used as the inoculum. Sample solutions (100 μl/well) were added to plates according to the plate layout. Inoculum (100 μl/well) was added to achieve a final concentration of 5×10^3 cfu/ml. Negative controls received 100 μl saline and 100 μl growth medium. Positive controls received 100 μl saline and 100 μl inoculum. Bacterial plates were incubated at 37° C. for 24 hours.
However, the data for Table 4 were obtained with a modified protocol wherein the medium was tryptic soy broth, inocolum strength was approximately 10^4 CFU per ml, and values determined were minimum bactericidal concentrations (MBC) or minimum fungicidal concentrations (MFC).
MBC or MFC values are in μg/mL. E. coli is Escherichia coli ATCC accession number 25922; P. aerug is Pseudomonas aeruginosa ATCC accession number 27853, S. aur. is Stapholococcus aureus ATCC accession number 25923; Candida is Candida albicans ATCC accession number 10231.

[2] = test system: Stapholococcus aureus ATCC 25923; assay: as above; details: minimum bactericidal concentration, Table 4
[3] = test system: Escherichia coli ATCC 25922; assay: as above; details: minimum bactericidal concentration, Table 4
[4] = test system: yeast (Saccharomyces cerevisiae); assay: Antimicrobial assay I, yeast assay in RPMI 1640; format: cell-based; details: RPMI 1640 media
Experimental: (§1) The data for the following antimicrobial assay of the peptides have been obtained by making OD measurements in in vitro cell culture experiments with and without added peptide. The protocol used is as follows.
(§2) Absorbance was read at 620 nm after shaking to resuspend cells.
The yeast assay was performed in RPMI 1640 media (pH 7.0 at 25° C.).
(§3) Staph6538 is Staphylococcus aureus ATCC accession number 6538; paerug9027 is Pseudomonas aeruginosa ATCC accession number 9027, yeast is Saccharomyces cerevisiae.

in vitro [5] = details: human, WI38 normal lung fibroblast cells, LD50 WI38, WI38 normal lung fibroblast line, MTT, 24 hours with peptide
in vitro [6] = format: cell-based, human; details: human, human red blood cells, pH 7, hemolytic assay, concentration at 50% hemolysis, 1 hour at 37° C.; read-out: LD50
Experimental: This hemolytic assay is based upon that presented in Journal of Peptide Research 53: 82-90 (1999). […] All procedures were performed according to safety protocols pertaining to the handling and disposal of human body fluids.
Red blood cells (RBCs) were washed three times with PBS (35 mM phosphate buffer 0.15 M NaCl, pH 7.0). RBCs suspended in PBS (0.4% (v/v); about 10 ml per 15 peptides) were prepared. Suspensions (100 μl) were aliquoted to each sample and control tube. Serially diluted peptide solutions (100 μl) were pipetted into the sample tubes. Negative control tubes contained 100 μl PBS; positive control tubes contained 100 μl 1% Triton-X100 detergent. All tubes were incubated for 1 hour at 37° C. The tubes were removed from the incubator and centrifuged at 1000 g for 5 minutes. Supernatant (100 μl) was pipetted to a 96-well polyvinyl chloride plate. The absorbance at 414 nm (A414) was measured, and used to calculate the percent hemolysis according to the following formula. [formula]

SW480 = assay: Anti-cancer assay, MTT, LD50; format: cell-based; details: SW480 colon adenocarcinoma line, 24 hours with peptide
From the text: (§4) Numbers are LD50 values (μg/mL).

MCF7 = assay: Anti-cancer assay, MTT, LD50; format: cell-based; details: MCF7 breast adenocarcinoma line, MTT, 24 hours with peptide
From the text: as §4

PC3 = assay: Anti-cancer assay, MTT, LD50; format: cell-based; details: 24 hours with peptide, prostate adenocarcinoma
From the text: as §4

HeLaS3 = assay: Anti-cancer assay, MTT, LD50; format: cell-based; details: 24 hours with peptide, cervical carcinoma
From the text: as §4

H1299 = assay: Anti-cancer assay, MTT, LD50; format: cell-based; details: 24 hours with peptide, lung large cell carcinoma
From the text: as §4

BMKC = assay: Anti-cancer assay, MTT, LD50; format: cell-based; details: BMKC cloned melanoma line, 24 hours with peptide
From the text: as §4

[7] = test system: Pseudomonas aeruginosa ATCC 9027; assay: Antimicrobial assay I, MIC by OD measurement; format: cell-based; details: 37° C. for 24 hours, absorbance 620 nm
From the text: as §1
(§5) Cell lines included Staphylococcus aureus ATCC 6538 or 25923, Pseudomonas aeruginosa ATCC 9027 or 27853. Medium used were Antibiotic Medium 3 (Difco), Antibiotic Medium 2 (Difco), and 0.85% saline. Controls used were physiological saline, and gentamycin at 50, 25, 10, 5, 1, and 0.1 ppm.
as §2, §3

[8] = test system: Staphylococcus aureus ATCC 6538; assay: Antimicrobial assay I, MIC by OD measurement; format: cell-based; details: 37° C. for 24 hours, absorbance 620 nm
From the text: as §1, §5, §2, §3

WI38 = details: MTT, 24 hours with peptide; normal fibroblast line
P. aeruginosa H374 = format: cell-based, Pseudomonas aeruginosa
Experimental: The synergistic effects of the inventive peptides with either chloramphenicol or nalidixic acid against efflux mutants of Pseudomonas aeruginosa were investigated. The MIC values were determined for either nalidixic acid or chloramphenicol alone as baselines. Peptides were added at their ¼ MIC concentration, and the concentration of either nalidixic acid or chloramphenicol to arrive at the MIC was determined. […] The fractional inhibitory concentration (FIC) index was used to determine synergy between peptides and antibiotics. Two-fold serial dilutions of antibiotic were tested in the presence of a constant amount of peptide, equal to one quarter of peptide MIC. The FIC index was determined as follows: FIC=0.25+MICantibiotic in combination/MICantibiotic alone. An FIC index of 0.5 or less is considered as synergy.

Row | Molecule | MBC P. aerug A.27853 [1] [µg/mL] | MBC S. aur A.25923 [2] [µg/mL] | MBC E. coli A.25922 [3] [µg/mL] | yeast (MIC or MFC) [4] | CC50 at 24 h (in vitro [5]) [µg/mL] | HC50 at 1 h (in vitro [6]) [µg/mL] | LD50 SW480 (SW480) [µg/mL] | LD50 MCF7 (MCF7) [µg/mL] | PC3 LD50 (PC3) [µg/mL] | HeLaS3 LD50 (HeLaS3) | H1299 LD50 (H1299) [µg/mL] | LD50 BMKC (BMKC) [µg/mL] | paerug9027 (MIC) [7] | staph6538 (MIC) [8] | WI38 LD50 (WI38) [µg/mL] | MIC Cm-comb. (P. aeruginosa H374; MIC of chloramphenicol with peptide at ¼ MIC) [µg/mL] | FIC Index (P. aeruginosa H374; chloramphenicol + peptide at ¼ MIC, 0.5 or less = synergy)
1 | CC(C)C[C@H](NC(=O)[C@H](C)NC(=O)[C@H](CC(C)C)NC(=O)[C@H](CCCCN)NC(=O)[C@H](C)NC(=O)[C@H](CC(C)C)NC(=O)[C@H](CCCCN)NC(=O)[C@H](CCCCN)NC(=O)[C@H](CC(C)C)NC(=O)[C@H](CCCCN)NC(=O)[C@H](CCCCN)NC(=O)[C@H](C)NC(=O)[C@H](CC(C)C)NC(=O)[C@H](CCCCN)NC(=O)[C@H](CCCCN)NC(=O)[C@H](C)NC(=O)[C@@H](N)Cc1ccccc1)C(=O)N[C@@H](C)C(=O)N[C@@H](CCCCN)C(N)=O [compound 41] | 40 (≈ 19 µM) | 40 (≈ 19 µM) | 40 (≈ 19 µM) |  |  |  |  |  |  |  |  |  |  |  |  |  | 
2 | WALAL-NH2 [P184, WALAL-NH2] |  |  |  | 100 µg/mL | 800 | 850 | 440 | 260 | 570 | 302 µg/mL | 370 | 600 | 100 µg/mL | 25 µg/mL | 800 |  | 
3 | FAKLLAKLAKAKL-NH2 [P65] |  |  |  | 200 µg/mL | 320 | 950 | 345 | 475 | 470 | 210 µg/mL | 450 | 250 | 50 µg/mL | 15 µg/mL | 320 |  | 
4 | FAKKLAKLAKKLLAL-NH2 [P38, FAKKLAKLAKKLLAL-NH2] |  |  |  | 50 µg/mL | 12 | 350 | 13 | 17 | 10 | 35 µg/mL | 33 | 21 | 50 µg/mL | 5 µg/mL | 12 |  | 
5 | FAKKLAKKLKKLAKKLAKKWKL-NH2 [P70] |  |  |  | 100 µg/mL | 34 | 80 | 11 | 44 | 82 | 28 µg/mL | 63 | 94 | > (> indicates greater than 200 μg/mL) | 10 µg/mL | 34 |  | 
6 | FAKLWAKLAFGKGIGKVGKKLL-NH2 [P135] |  |  |  | 50 µg/mL | 110 | 900 | 80 | 54 | 310 | 215 µg/mL | 115 | 155 | 10 µg/mL | 15 µg/mL | 110 |  | 
7 | CC(C)C[C@H](NC(=O)[C@H](C)NC(=O)[C@H](CCCCN)NC(=O)[C@H](CC(C)C)NC(=O)[C@H](C)NC(=O)[C@H](CC(C)C)NC(=O)[C@H](C)NC(=O)[C@H](CCCCN)NC(=O)[C@H](CC(C)C)NC(=O)[C@H](C)NC(=O)[C@H](CC(C)C)NC(=O)[C@H](C)NC(=O)[C@H](CC(C)C)NC(=O)[C@H](CCCCN)NC(=O)[C@H](C)NC(=O)[C@H](CC(C)C)NC(=O)[C@H](CCCCN)NC(=O)[C@H](CCCCN)NC(=O)[C@H](C)NC(=O)[C@H](CC(C)C)NC(=O)[C@H](CCCCN)NC(=O)[C@H](CCCCN)NC(=O)[C@H](CC(C)C)NC(=O)[C@H](CCCCN)NC(=O)[C@H](CCCCN)NC(=O)[C@H](C)NC(=O)[C@H](CC(C)C)NC(=O)[C@H](CCCCN)NC(=O)[C@H](CCCCN)NC(=O)[C@H](C)NC(=O)[C@@H](N)Cc1ccccc1)C(N)=O [P98, reference compound] |  |  |  | > (> indicates greater than 200 μg/mL) | 47 (≈ 14 µM) | 60 | 125 | 96 | 52 | 175 µg/mL | 53 | 94 | > (> indicates greater than 200 μg/mL) | > (> indicates greater than 200 μg/mL) | 47 |  | 
8 | VAKLLAKLAKKLL-NH2 [P48] |  |  |  | 25 µg/mL | 41 | 200 | 47 | 23 | 32 | 44 µg/mL | 17 | 43 | 5 µg/mL | 5 µg/mL | 41 |  | 
9 | FALALKLAKKAL-NH2 [P167, FALALKLAKKAL-NH2] |  |  |  | 100 µg/mL | 260 | 200 | 360 | 230 | 320 | 325 µg/mL | 300 | 240 | 25 µg/mL | 10 µg/mL | 260 |  | 
10 | FKRLAKIKVLRLAKIKR-NH2 [P147] |  |  |  | 200 µg/mL | 83 | 300 | 185 | 106 | 340 | > (> indicates greater than 1000) | 93 | 110 | 5 µg/mL | 5 µg/mL | 83 |  | 
11 | FAKLLAKFLKKAL-NH2 [P113] |  |  |  | 200 µg/mL | 170 | 1000 | 180 | 150 | 240 | 190 µg/mL | 50 | 115 | 200 µg/mL | 10 µg/mL | 170 | 16 | 1.25
12 | KWKLFKKALKKLKKALKKAL-NH2 [P104] |  |  |  | 200 µg/mL | 24 | 70 | 54 | 11 | 18 | 130 µg/mL | 52 | 100 | 10 µg/mL | 10 µg/mL | 24 |  | 
